Tested on: Paracoccus carotinifaciens strain E-396 (FERM BP-4283)
Assay type: cell-based
Details: each trace metal added singly at final concentration of Table 1; shaking at 28° C. for 4 days
Protocol: Subsequently, a medium of the following composition (glucose 30 g/L, filtered corn steep liquor 30 g/L, ammonium sulfate 1.5 g/L, potassium dihydrogen phosphate 1.5 g/L, disodium hydrogen phosphate dodecahydrate 3.8 g/L, calcium chloride dihydrate 5.0 g/L, magnesium sulfate heptahydrate 0.7 g/L, iron sulfate heptahydrate 1.0 g/L, silicon-based defoaming agent 0.2 g/L) was dispensed in 7.2 ml volumes into cotton-plugged test tubes having an inner diameter of 18 mm to prepare 13 test tubes containing a test tube medium for production. The ingredients used to prepare the test tube medium for production were obtained from lots where microbial cells had been confirmed not to grow well.
The 12 trace metals indicated in Table 1 were separately prepared in 0.8 ml volumes to have their final concentrations indicated in Table 1 and then added to the above 12 test tubes for production, respectively. The remaining one test tube was supplemented with 0.8 ml of ion exchanged water.
The resulting culture solution was then inoculated in 0.05 ml volumes into the 13 types of test tube media for production and cultured under shaking at 28° C. for 4 days at 300 spm.

SMILES	OD610
OB(O)O [Boric acid]	4
O.O.O.O.O.O.[Cl][Cr]([Cl])[Cl] [Chromium (III) chloride hexahydrate]	3
[I-].[K+] [Potassium iodide]	4
O.O.[Na+].[Na+].[O]=[Mo](=[O])([O-])[O-] [Sodium molybdate dihydrate]	4
O=[Se](=O)(O)O [Sodium selenate]	3
[Na+].[Na+].[O]=[W](=[O])([O-])[O-] [Sodium tungstate]	4
